Laboratory results published in article PMC12409578 (ACS Omega, 2025).
Entries after “also recorded” stand apart in the source; their conditions may differ.

Columns and labels:
BChE (from equine serum) = molecular target: T1, BChE (from equine serum) (Equus caballus, UniProt P81908); test: biochemical; settings: for Ki: Lineweaver–Burk plots, mean ± SEM, read-out: BChE K I; for IC50: equine serum BChE, BChI substrate, 37 °C, pH 8.0
T1 construct: BChE (from equine serum); from tissue; host or cells: equine serum
T1 sequence (P81908 whole entry): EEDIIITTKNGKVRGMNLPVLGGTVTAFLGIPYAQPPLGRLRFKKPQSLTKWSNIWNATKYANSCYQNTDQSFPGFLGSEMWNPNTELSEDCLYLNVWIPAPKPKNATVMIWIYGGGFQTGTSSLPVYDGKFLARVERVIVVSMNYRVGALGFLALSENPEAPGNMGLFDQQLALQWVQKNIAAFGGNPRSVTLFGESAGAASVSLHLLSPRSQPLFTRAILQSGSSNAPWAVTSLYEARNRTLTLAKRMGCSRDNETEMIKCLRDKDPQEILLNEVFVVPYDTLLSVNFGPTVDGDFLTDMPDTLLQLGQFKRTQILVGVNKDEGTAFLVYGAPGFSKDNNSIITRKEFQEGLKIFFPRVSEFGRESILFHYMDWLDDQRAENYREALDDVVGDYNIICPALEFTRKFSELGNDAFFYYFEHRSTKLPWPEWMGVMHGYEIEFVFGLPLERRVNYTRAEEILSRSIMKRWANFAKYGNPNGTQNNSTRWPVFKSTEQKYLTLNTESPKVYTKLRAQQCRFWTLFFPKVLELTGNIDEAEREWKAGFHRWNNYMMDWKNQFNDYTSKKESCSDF

[1] = MTT cytotoxicity test on HUVEC cell line; format: cell-based; settings: human, HUVEC cells (healthy cell line)
Protocol: Cell culture studies were conducted using the previously mentioned method , and HUVEC (healthy cell line) was grown for this study. After the cells were grown, the maximum dose accepted as 100 μM drug concentration was applied to the cell line for all compounds, and cell viability was determined. , The results were illustrated in Table .
The cytotoxic effect of all compounds by MTT analysis was performed to determine the proliferation on the HUVEC cell line. The MTT [3-(4,5-dimethyl-2-thiazol)-2,5-diphenyl-2H-tetrazolium bromide] cytotoxicity assay was employed according to previous studies with minor modifications. −

AChE (from electric eel) = molecular target: T2, AChE (from electric eel) (Electrophorus electricus, UniProt O42275); test: biochemical; format: biochemical; settings: for Ki: Lineweaver–Burk plots, mean ± SEM, read-out: AChE K I; for IC50: electric eel AChE, ATChI substrate, 37 °C, pH 8.0; for selectivity for AChE than for BChE (in words): from K I values / selectivity index
T2 construct: AChE (from electric eel); from tissue
T2 sequence (O42275 24-633): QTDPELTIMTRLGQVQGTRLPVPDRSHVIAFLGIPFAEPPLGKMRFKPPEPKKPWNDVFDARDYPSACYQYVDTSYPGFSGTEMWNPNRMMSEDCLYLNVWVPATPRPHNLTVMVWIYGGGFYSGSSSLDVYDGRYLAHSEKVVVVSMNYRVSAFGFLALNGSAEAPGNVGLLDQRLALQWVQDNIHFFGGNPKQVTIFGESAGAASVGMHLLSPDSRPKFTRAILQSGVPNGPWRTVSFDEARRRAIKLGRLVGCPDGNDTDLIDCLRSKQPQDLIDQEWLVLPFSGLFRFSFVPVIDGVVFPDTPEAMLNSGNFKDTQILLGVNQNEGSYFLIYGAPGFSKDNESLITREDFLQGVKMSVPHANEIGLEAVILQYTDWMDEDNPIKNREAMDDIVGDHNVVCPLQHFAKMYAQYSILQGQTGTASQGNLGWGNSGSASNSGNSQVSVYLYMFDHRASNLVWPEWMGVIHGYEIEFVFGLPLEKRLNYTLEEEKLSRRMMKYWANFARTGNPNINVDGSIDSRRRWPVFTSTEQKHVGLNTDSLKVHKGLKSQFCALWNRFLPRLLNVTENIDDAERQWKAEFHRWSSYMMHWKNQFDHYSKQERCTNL

Row | Structure (SMILES) | Ki (BChE (from equine serum)) [nM] | IC50 (BChE (from equine serum)) [nM] | viability at 24 h, 100 µM [1] [%] | SI (selectivity index) = K I (AChE)/ K I (BChE) (AChE (from electric eel)) | Ki (AChE (from electric eel)) [nM] | IC50 (AChE (from electric eel)) [nM] | selectivity for AChE than for BChE (in words) (AChE (from electric eel))
1 | COc1ccc(C2=NN(c3nc(-c4ccccc4)cs3)C(c3ccc(C)s3)C2)cc1OC (stereo not drawn) [Compound 3a, 2-[3-(3,4-Dimethoxyphenyl)-5-(5-methylthiophen-2-yl)-4,5-dihydro-1H-pyrazol-1-yl]-4-phenylthiazole] | 1350 ± 83 | 4300 | 99.2 | 0.660 | 886 ± 54 | 2850 | 
2 | COc1ccc(C2=NN(c3nc(-c4ccc(C)cc4)cs3)C(c3ccc(C)s3)C2)cc1OC (stereo not drawn) [Compound 3b, 2-[3-(3,4-Dimethoxyphenyl)-5-(5-methylthiophen-2-yl)-4,5-dihydro-1H-pyrazol-1-yl]-4-(4-methylphenyl)thiazole] | 2220 ± 132 | 4150 | 133 | 0.361 | 804 ± 62 | 4010 | more significant selectivity
3 | COc1ccc(-c2csc(N3N=C(c4ccc(OC)c(OC)c4)CC3c3ccc(C)s3)n2)cc1 (stereo not drawn) [Compound 3c, 2-[3-(3,4-Dimethoxyphenyl)-5-(5-methylthiophen-2-yl)-4,5-dihydro-1H-pyrazol-1-yl]-4-(4-methoxyphenyl)thiazole] | 1160 ± 62 | 3070 | 97.2 | 1.016 | 1180 ± 83 | 4810 | 
4 | COc1ccc(C2=NN(c3nc(-c4ccc(Cl)cc4)cs3)C(c3ccc(C)s3)C2)cc1OC (stereo not drawn) [Compound 3d, 2-[3-(3,4-Dimethoxyphenyl)-5-(5-methylthiophen-2-yl)-4,5-dihydro-1H-pyrazol-1-yl]-4-(4-chlorophenyl)thiazole] | 1640 ± 85 | 6030 | 126 | 0.074 | 121 ± 7 | 523 | more significant selectivity
5 | COc1ccc(C2=NN(c3nc(-c4ccc(F)cc4)cs3)C(c3ccc(C)s3)C2)cc1OC (stereo not drawn) [Compound 3e, 2-[3-(3,4-Dimethoxyphenyl)-5-(5-methylthiophen-2-yl)-4,5-dihydro-1H-pyrazol-1-yl]-4-(4-fluorophenyl)thiazole] | 1720 ± 150 | 3320 | 118 | 0.082 | 143 ± 84 | 385 | more significant selectivity
6 | COc1ccc(C2=NN(c3nc(-c4ccc([N+](=O)[O-])cc4)cs3)C(c3ccc(C)s3)C2)cc1OC (stereo not drawn) [Compound 3f, 2-[3-(3,4-Dimethoxyphenyl)-5-(5-methylthiophen-2-yl)-4,5-dihydro-1H-pyrazol-1-yl]-4-(4-nitrophenyl)thiazole] | 1460 ± 71 | 4250 | 86 | 0.039 | 57 ± 3 | 382 | highest selectivity for AChE; also recorded: more significant selectivity
7 | COc1ccc(C2=NN(c3nc(-c4ccc(C#N)cc4)cs3)C(c3ccc(C)s3)C2)cc1OC (stereo not drawn) [Compound 3g, 2-[3-(3,4-Dimethoxyphenyl)-5-(5-methylthiophen-2-yl)-4,5-dihydro-1H-pyrazol-1-yl]-4-(4-cyanophenyl)thiazole] | 789 ± 56 | 2090 | 94 | 0.057 | 45 ± 2 | 338 | highest selectivity for AChE; also recorded: more significant selectivity
8 | COc1ccc(C2=NN(c3nc(-c4ccc(Cl)cc4Cl)cs3)C(c3ccc(C)s3)C2)cc1OC (stereo not drawn) [Compound 3h, 2-[3-(3,4-Dimethoxyphenyl)-5-(5-methylthiophen-2-yl)-4,5-dihydro-1H-pyrazol-1-yl]-4-(2,4-dichlorophenyl)thiazole] | 1690 ± 82 | 4990 | 138 | 0.655 | 1100 ± 58 | 5460 | 
9 | COc1ccc(C2=NN(c3nc(-c4ccc(F)cc4F)cs3)C(c3ccc(C)s3)C2)cc1OC (stereo not drawn) [Compound 3i, 2-[3-(3,4-Dimethoxyphenyl)-5-(5-methylthiophen-2-yl)-4,5-dihydro-1H-pyrazol-1-yl]-4-(2,4-difluorophenyl)thiazole] | 1590 ± 78 | 7370 | 86.4 | 0.332 | 529 ± 34 | 6420 | 
10 | COc1ccc(C2=NN(c3nc(-c4cccc([N+](=O)[O-])c4)cs3)C(c3ccc(C)s3)C2)cc1OC (stereo not drawn) [Compound 3j, 2-[3-(3,4-Dimethoxyphenyl)-5-(5-methylthiophen-2-yl)-4,5-dihydro-1H-pyrazol-1-yl]-4-(3-nitrophenyl)thiazole] | 2370 ± 114 | 4920 | 102 | 0.178 | 423 ± 23 | 4030 | more significant selectivity
